Consider two molecules from patent US10588892B2, “Pharmaceutical composition comprising sacubitril and valsartan” (priority 2017, dated 2020).

A short description of the data set: Stability of polymorphic forms towards relative humidity. The conditions noted are these: for stability at low relative humidity: relative humidity below 40%, temperatures between 15 and 30° C. The data set is classed as physicochemical. The protocol: Changes in humidity have less impact on the valsartan disodium form 2 as compared to the prior art form 1. […] By using valsartan disodium form 2 and by preparing the composition in an environment with relative humidity below 40%, at temperatures between 15 and 30° C., formation of the co-crystal is completely avoided. Any polymorphic form of sacubitril sodium can be used in accordance with the present invention. Preferably, the polymorphic form of sacubitril sodium is, like valsartan disodium form 2, very stable at relative humidity below […], at temperatures between 15 and 30° C. Particularly preferred polymorphic forms of sacubitril sodium to be used in a composition comprising a physical mixture with valsartan disodium form 2 are sacubitril sodium form 1 and form 2. Sacubitril sodium form 1 has an X-ray powder diffraction pattern comprising characteristic peaks at the following 2 theta (±0.2) angles: 3.14°, 6.25°, 11.97°, 12.73°, 13.78°, 16.50°, 18.35°, 19.93°, 21.56°, 23.75°, 26.20°, measured using a Cu Kα radiation. Sacubitril sodium form 2 has an X-ray powder diffraction pattern comprising characteristic peaks at the following 2 theta (±0.2) angles: 5.26°, 10.52°, 10.92°, 14.78°, 16.96°, 17.17°, 17.51°, 19.92°, 20.40°, 20.81°, 22.23°, measured using a Cu Kα radiation. […] The most preferred polymorphic form of sacubitril sodium to be used with valsartan disodium form 2 in a composition in accordance with the present invention is form 1.

Turning to `CCOC(=O)[C@H](C)C[C@@H](Cc1ccc(-c2ccccc2)cc1)NC(=O)CCC(=O)O` [Sacubitril sodium form 1, sacubitril sodium], the “stability at low relative humidity” value is reported as “stable compounds”.

With `CCCCC(=O)N(Cc1ccc(-c2ccccc2-c2nnn[nH]2)cc1)[C@H](C(=O)O)C(C)C` [valsartan disodium form 2, valsartan disodium], the “impact of changes in humidity compared with prior art form 1” value is reported as “less impact”, the “stability compared with prior art form 1 (example 11 of WO2002006253)” value was “more stable” and the “stability at low relative humidity” value is listed as “particularly stable”.
